Measurements from US9708349B2, “Borates for photoactivated chemical bleaching” (GENERAL ELECTRIC COMPANY, priority 2015, dated 2017).

Test: Stability of solid borate on exposure to air (1HNMR)

c1ccc(C[B-](c2ccccc2)(c2ccccc2)c2ccccc2)cc1 [MBB, monobenzyltriphenyl borate]
time to evidence of decomposition: < 10 min
